# From patent US20080176936A1, “Classes of Compounds that Interact with Integrins” (priority 2005, published 2008)
# Tests used:
# αllbβ3 integrin = molecular target: T1, αllbβ3 integrin (Homo sapiens, UniProt P05106+P08514); assay: ELISA: inhibition of binding of αllbβ3 integrin membrane preparation to coated extracellular matrix protein; conditions: human platelet membrane preparation
# T1 construct: Human platelet membrane preparations were used as a source of αllbβ3 integrin; from tissue; host or cells: human platelets (membrane preparation)
# In short: (§1)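 Integrin sources were human platelet membrane preparations for αIIbβ3 and WM-115 cells for αVβ3, each preincubated with test compound. Binding to fibrinogen- or vitronectin-coated plates (10 µg/well) was quantified with an anti-integrin β3 antibody and an HRP-coupled secondary antibody using colorimetric detection.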
# αVβ3 integrin = molecular target: T2, αVβ3 integrin (Homo sapiens, UniProt P05106+P06756); assay: ELISA: inhibition of binding of αVβ3 integrin (source WM-115 cell line) to coated extracellular matrix protein; conditions: WM-115 cell line as integrin source
# T2 construct: the cell line WM-115 was used as a source of αVβ3 integrin; endogenous in cells; host or cells: WM-115 cell line
# In short: as §1
# T2 sequence (P06756 31-889 limits assumed): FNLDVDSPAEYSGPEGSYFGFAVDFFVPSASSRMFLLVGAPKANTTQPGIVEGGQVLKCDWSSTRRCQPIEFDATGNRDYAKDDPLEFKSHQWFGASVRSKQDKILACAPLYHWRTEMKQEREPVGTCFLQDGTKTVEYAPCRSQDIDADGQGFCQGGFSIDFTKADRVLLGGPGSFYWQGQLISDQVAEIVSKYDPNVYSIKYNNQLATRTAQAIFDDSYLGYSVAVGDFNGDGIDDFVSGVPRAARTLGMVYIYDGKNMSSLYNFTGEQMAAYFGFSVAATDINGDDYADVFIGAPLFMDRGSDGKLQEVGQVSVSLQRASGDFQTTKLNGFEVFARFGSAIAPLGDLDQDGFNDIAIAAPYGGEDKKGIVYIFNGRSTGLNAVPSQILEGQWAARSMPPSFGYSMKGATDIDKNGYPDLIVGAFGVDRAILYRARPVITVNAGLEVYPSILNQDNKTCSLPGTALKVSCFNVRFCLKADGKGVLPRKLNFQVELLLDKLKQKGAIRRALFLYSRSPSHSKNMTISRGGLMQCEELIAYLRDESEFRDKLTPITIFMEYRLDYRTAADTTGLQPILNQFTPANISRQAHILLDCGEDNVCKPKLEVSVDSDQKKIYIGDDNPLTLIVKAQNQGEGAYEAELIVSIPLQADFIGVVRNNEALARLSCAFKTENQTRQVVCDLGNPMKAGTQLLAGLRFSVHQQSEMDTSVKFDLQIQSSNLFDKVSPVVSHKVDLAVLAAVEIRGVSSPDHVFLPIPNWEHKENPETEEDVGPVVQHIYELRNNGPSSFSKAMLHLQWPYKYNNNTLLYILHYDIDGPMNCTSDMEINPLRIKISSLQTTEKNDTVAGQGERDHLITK
# T2 sequence (P06756 891-1048 partner limits assumed): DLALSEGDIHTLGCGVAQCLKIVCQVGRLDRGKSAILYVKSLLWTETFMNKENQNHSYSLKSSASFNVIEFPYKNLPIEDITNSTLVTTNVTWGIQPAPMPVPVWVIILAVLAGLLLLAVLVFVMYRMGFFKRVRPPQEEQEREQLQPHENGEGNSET
# T2 sequence (P05106 27-788): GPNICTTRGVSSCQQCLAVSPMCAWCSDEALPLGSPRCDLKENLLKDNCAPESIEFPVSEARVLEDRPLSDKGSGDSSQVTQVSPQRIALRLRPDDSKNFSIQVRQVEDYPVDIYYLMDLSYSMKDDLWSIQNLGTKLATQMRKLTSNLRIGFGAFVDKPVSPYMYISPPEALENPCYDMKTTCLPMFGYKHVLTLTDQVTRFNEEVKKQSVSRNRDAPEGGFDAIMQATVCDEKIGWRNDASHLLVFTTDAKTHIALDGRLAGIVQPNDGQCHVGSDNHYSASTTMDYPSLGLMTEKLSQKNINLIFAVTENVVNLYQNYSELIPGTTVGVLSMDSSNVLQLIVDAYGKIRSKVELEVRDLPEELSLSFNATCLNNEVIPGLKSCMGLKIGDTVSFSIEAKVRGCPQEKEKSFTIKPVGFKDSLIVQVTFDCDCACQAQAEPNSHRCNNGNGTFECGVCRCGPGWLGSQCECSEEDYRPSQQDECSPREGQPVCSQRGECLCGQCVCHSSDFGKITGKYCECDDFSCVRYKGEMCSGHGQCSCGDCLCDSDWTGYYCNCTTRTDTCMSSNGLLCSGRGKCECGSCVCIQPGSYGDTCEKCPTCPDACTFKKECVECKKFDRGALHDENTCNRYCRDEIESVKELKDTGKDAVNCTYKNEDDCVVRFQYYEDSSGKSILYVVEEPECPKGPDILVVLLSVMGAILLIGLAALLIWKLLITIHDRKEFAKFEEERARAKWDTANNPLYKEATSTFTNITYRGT
# T1 sequence (P08514 32-887 limits assumed): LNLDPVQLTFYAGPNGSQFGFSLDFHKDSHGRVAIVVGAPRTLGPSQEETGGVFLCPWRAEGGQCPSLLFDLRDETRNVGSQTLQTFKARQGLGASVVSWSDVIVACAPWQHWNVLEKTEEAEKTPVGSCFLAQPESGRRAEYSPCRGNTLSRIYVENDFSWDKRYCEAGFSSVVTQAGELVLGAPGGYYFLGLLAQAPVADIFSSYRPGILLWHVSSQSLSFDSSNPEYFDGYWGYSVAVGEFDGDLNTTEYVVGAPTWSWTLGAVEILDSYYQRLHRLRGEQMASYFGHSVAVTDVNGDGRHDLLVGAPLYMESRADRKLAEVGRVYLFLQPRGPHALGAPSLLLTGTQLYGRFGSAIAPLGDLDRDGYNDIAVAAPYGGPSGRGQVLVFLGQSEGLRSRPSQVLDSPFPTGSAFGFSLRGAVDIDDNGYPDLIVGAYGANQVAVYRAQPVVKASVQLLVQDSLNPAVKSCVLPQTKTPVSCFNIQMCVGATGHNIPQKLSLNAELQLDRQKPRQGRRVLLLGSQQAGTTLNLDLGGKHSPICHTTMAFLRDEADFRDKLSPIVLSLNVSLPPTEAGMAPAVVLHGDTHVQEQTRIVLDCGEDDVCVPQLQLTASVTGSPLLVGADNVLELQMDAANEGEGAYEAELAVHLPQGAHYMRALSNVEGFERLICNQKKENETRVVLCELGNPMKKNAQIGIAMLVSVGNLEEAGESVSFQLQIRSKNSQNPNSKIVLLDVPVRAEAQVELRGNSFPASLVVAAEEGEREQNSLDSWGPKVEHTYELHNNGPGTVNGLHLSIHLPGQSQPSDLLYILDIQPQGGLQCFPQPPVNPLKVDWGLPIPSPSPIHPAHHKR
# T1 sequence (P08514 891-1039 partner limits assumed): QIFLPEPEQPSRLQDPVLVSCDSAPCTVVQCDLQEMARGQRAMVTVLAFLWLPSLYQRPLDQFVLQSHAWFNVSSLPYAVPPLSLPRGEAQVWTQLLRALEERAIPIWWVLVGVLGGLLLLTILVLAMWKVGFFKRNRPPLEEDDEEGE
# T1 sequence (P05106 27-788): as the sequence (P05106 27-788) above
Structure (SMILES),INHIBITION @ 250 uM RECEPTOR allBb3 SUBSTRATE FIBRINOGEN (αllbβ3 integrin),INHIBITION 250 uM RECEPTOR allBb3 SUBSTRATE VITRONECTIN (αllbβ3 integrin),INHIBITION 250 uM RECEPTOR aVb3 SUBSTRATE FIBRINOGEN (αVβ3 integrin)
"Nc1cccc(COC2C(O)C(COCc3ccc(Br)cc3)OC(O)C2NC(=O)c2ccc(C(=O)O)cc2)c1 (single isomer, unassigned) [Compound 74]",− (0% to 35% inhibition at 250 micromolar),+++ (81% to 100% inhibition at 250 micromolar),− (0% to 35% inhibition at 250 micromolar)
"Nc1cccc(COC2C(O)C(COCc3ccc(Br)cc3)OC(O)C2NC(=O)c2ccc(C(=O)O)cc2)c1 (single isomer, unassigned) [Compound 75]",+ (36% to 60% inhibition at 250 micromolar),+++ (81% to 100% inhibition at 250 micromolar),− (0% to 35% inhibition at 250 micromolar)
"CCOC1OC(COCC(=O)O)C(O)C(OCc2cccc(N)c2)C1NC(=O)c1ccc(Cl)cc1 (single isomer, unassigned) [Compound 76]",− (0% to 35% inhibition at 250 micromolar),− (0% to 35% inhibition at 250 micromolar),− (0% to 35% inhibition at 250 micromolar)
"CCOC1OC(COCC(=O)O)C(O)C(OCc2cccc(N)c2)C1NC(=O)c1ccc(Cl)cc1 (single isomer, unassigned) [Compound 77]",++ (61% to 80% inhibition at 250 micromolar),+++ (81% to 100% inhibition at 250 micromolar),+ (36% to 60% inhibition at 250 micromolar)
"CCOC1OC(COCc2ccc(C(=O)O)cc2)C(O)C(OCc2cccc(N)c2)C1NC(=O)c1ccc(Cl)cc1 (single isomer, unassigned) [Compound 78]",− (0% to 35% inhibition at 250 micromolar),+++ (81% to 100% inhibition at 250 micromolar),+++ (81% to 100% inhibition at 250 micromolar)
"CCOC1OC(COCc2ccc(C(=O)O)cc2)C(O)C(OCc2cccc(N)c2)C1NC(=O)c1ccc(Cl)cc1 (single isomer, unassigned) [Compound 79]",+ (36% to 60% inhibition at 250 micromolar),+++ (81% to 100% inhibition at 250 micromolar),+++ (81% to 100% inhibition at 250 micromolar)
"Nc1cccc(COC2C(O)C(COCc3ccc(C(=O)O)cc3)OC(O)C2NC(=O)c2ccc(Cl)cc2)c1 (single isomer, unassigned) [Compound 81]",+ (36% to 60% inhibition at 250 micromolar),+++ (81% to 100% inhibition at 250 micromolar),+++ (81% to 100% inhibition at 250 micromolar)
"Nc1cccc(COC2C(O)C(COCc3ccc(C(=O)O)cc3)OC(O)C2NC(=O)c2ccc(Cl)cc2)c1 (single isomer, unassigned) [Compound 82]",++ (61% to 80% inhibition at 250 micromolar),+ (36% to 60% inhibition at 250 micromolar),++ (61% to 80% inhibition at 250 micromolar)
"CCOC1C(O)C(COCC(=O)O)OC(OCc2ccccc2)C1NC(=O)c1cccc(N)c1 (single isomer, unassigned) [Compound 84]",− (0% to 35% inhibition at 250 micromolar),− (0% to 35% inhibition at 250 micromolar),− (0% to 35% inhibition at 250 micromolar)
"CCOC1C(O)C(COCC(=O)O)OC(OCc2ccccc2)C1NC(=O)c1cccc(N)c1 (single isomer, unassigned) [Compound 85]",− (0% to 35% inhibition at 250 micromolar),+++ (81% to 100% inhibition at 250 micromolar),− (0% to 35% inhibition at 250 micromolar)
"CCOC1C(O)C(COCc2ccc(C(=O)O)cc2)OC(OCc2ccccc2)C1NC(=O)CCNC(=N)N (single isomer, unassigned) [Compound 86]",− (0% to 35% inhibition at 250 micromolar),+++ (81% to 100% inhibition at 250 micromolar),− (0% to 35% inhibition at 250 micromolar)
"CCOC1C(O)C(COCc2ccc(C(=O)O)cc2)OC(OCc2ccccc2)C1NC(=O)CCNC(=N)N (single isomer, unassigned) [Compound 87]",− (0% to 35% inhibition at 250 micromolar),+++ (81% to 100% inhibition at 250 micromolar),− (0% to 35% inhibition at 250 micromolar)
